Patent publication US10351546B2, “Pyridin-3-yl acetic acid derivatives as inhibitors of human immunodeficiency virus replication” (priority 2015, dated 2019)
pEC50: −log10 of the molar value.

The compounds below were run on NL-RLuc virus (assay: Inhibition of HIV replication (NL-RLuc luciferase reporter virus in MT-2 cells)). Conditions: Human immunodeficiency virus 1, MT2, 120 h, read-out: Activity.
Assay type: cell-based
Text: Inhibition of HIV replication: A recombinant NL-RLuc proviral clone was constructed in which a section of the nef gene form NL4-3 was replaced with the Renilla Luciferase gene. This virus is fully infectious and can undergo multiple cycles of replication in cell culture. In addition, the luciferous reporter provides a simple and easy method for quantitating the extent of virus growth and consequently, the antiviral activity of test compounds. The plasmid pNLRLuc contains the proviral NL-Rluc DNA cloned into pUC18 at the PvuII site. The NL-RLuc virus was prepared by transfection of 293T cells with the plasmid pNLRLuc. Transfections were performed using the LipofectAMINE PLUS kit form Invitrogen (Carlsbad, Calif.) according to the manufacturer and the virus generated was titered in MT-2 cells. For susceptibility analyses, the titrated virus was used to infect MT-2 cells in the presence of compound, and after 5 days of incubation, cells were processed and quantitated for virus growth by the amount of expressed luciferase. Assay media was RPMI 1640 supplemented with 10% heat inactivated fetal bovine serum (FBS), 100 units/ml penicillin G/100 units/ml streptomycin, 10 mM HEPES buffer pH 7.55 and 2 mM L-glutamine. The results form at least 2 experiments were used to calculate the EC50 values. Luciferase was quantitated using the Dual Luciferase kit form Promega (Madison, Wis.). Susceptibility of viruses to compounds was determined by incubation in the presence of serial dilutions of the compound. The 50% effective concentration (EC50) was calculated by using the exponential form of the median effect equation where (Fa)=1/[1+(ED50/drug conc.)^m](Johnson V A, Byington R T. Infectivity Assay. In Techniques in HIV Research. ed. Aldovini A, Walker B D. 71-76. New York: Stockton Press. 1990). Activity equal to A refers to a compound having an EC50≤100 nM, while B and C denote compounds having an EC50 between 100 nM and 1 uM (B) or >1 uM (C).

| Structure (SMILES) | pEC50 |
| --- | --- |
| Cc1ncc(-c2ccc(OCCc3ccc(F)cc3)cc2)c(N2CCC(C)(C)CC2)c1[C@H](OC(C)(C)C)C(=O)O [Example 63, (S)-2-(tert-Butoxy)-2-(4-(4,4-dimethylpiperidin-1-yl)-5-(4-(4-fluorophenethoxy)phenyl)-2-methylpyridin-3-yl)acetic acid] | > 7.00 |
| Cc1nc(CNC(=O)C(=O)N(C)C)c(-c2ccc(OCCc3ccc(F)cc3)cc2)c(N2CCC(C)(C)CC2)c1[C@H](OC(C)(C)C)C(=O)O [Example 105, (S)-2-(tert-Butoxy)-2-(6-((2-(dimethylamino)-2-oxoacetamido)methyl)-4-(4,4-dimethylpiperidin-1-yl)-5-(4-(4-fluorophenethoxy)phenyl)-2-methylpyridin-3-yl)acetic acid] | > 7.00 |
| Cc1nc(CNC=O)c(-c2ccc(OCCc3ccc(F)cc3)cc2)c(N2CCC(C)(C)CC2)c1[C@H](OC(C)(C)C)C(=O)O [Example 107, (S)-2-(tert-Butoxy)-2-(4-(4,4-dimethylpiperidin-1-yl)-5-(4-(4-fluorophenethoxy)phenyl)-6-(formamidomethyl)-2-methylpyridin-3-yl)acetic acid] | > 7.00 |
| COCCc1nc(C)c([C@H](OC(C)(C)C)C(=O)O)c(N2CCC(C)(C)CC2)c1-c1ccc(OCCc2ccc(F)cc2)cc1 [Example 58, (S)-2-(tert-butoxy)-2-(4-(4,4-dimethylpiperidin-1-yl)-5-(4-(4-fluorophenethoxy)phenyl)-6-(2-methoxyethyl)-2-methylpyridin-3-yl)acetic acid] | > 7.00 |
| COCc1nc(C)c([C@H](OC(C)(C)C)C(=O)O)c(N2CCC(C)(C)CC2)c1-c1ccc2c(c1)CCN(Cc1ccc(F)cc1C)C2 [Example 157, (S)-2-(tert-Butoxy)-2-(4-(4,4-dimethylpiperidin-1-yl)-5-(2-(4-fluoro-2-methylbenzyl)-1,2,3,4-tetrahydroisoquinolin-6-yl)-6-(methoxymethyl)-2-methylpyridin-3-yl)acetic acid] | > 7.00 |
| Cc1nc(CNCc2ccccc2)c(-c2ccc(OCCc3ccc(F)cc3)cc2)c(N2CCC(C)(C)CC2)c1[C@H](OC(C)(C)C)C(=O)O [Example 72, (S)-2-(6-((Benzylamino)methyl)-4-(4,4-dimethylpiperidin-1-yl)-5-(4-(4-fluorophenethoxy)phenyl)-2-methylpyridin-3-yl)-2-(tert-butoxy)acetic acid] | > 7.00 |
| Cc1nc(COCc2nc(C)c([C@H](OC(C)(C)C)C(=O)O)c(N3CCC(C)(C)CC3)c2-c2ccc(OCCc3ccc(F)cc3)cc2)sc1C [Example 20, (S)-2-(tert-Butoxy)-2-(4-(4,4-dimethylpiperidin-1-yl)-6-(((4,5-dimethylthiazol-2-yl)methoxy)methyl)-5-(4-(4-fluorophenethoxy)phenyl)-2-methylpyridin-3-yl)acetic acid] | > 7.00 |
| COCCN(CCOC)Cc1nc(C)c([C@H](OC(C)(C)C)C(=O)O)c(N2CCC(C)(C)CC2)c1-c1ccc(OCCc2ccc(F)cc2)cc1 [Example 93, (S)-2-(6-((Bis(2-methoxyethyl)amino)methyl)-4-(4,4-dimethylpiperidin-1-yl)-5-(4-(4-fluorophenethoxy)phenyl)-2-methylpyridin-3-yl)-2-(tert-butoxy)acetic acid] | > 7.00 |
| COc1nc(C)c([C@H](OC(C)(C)C)C(=O)O)c(N2CCC(C)(C)CC2)c1-c1ccc(OCCc2ccc(F)cc2)cc1 (single isomer, unassigned) [Example 51] | > 7.00 |
| Cc1cc(N2CCc3cc(-c4c(N)nc(C)c([C@H](OC(C)(C)C)C(=O)O)c4N4CCC(C)(C)CC4)ccc3C2)ncn1 [Example 148, (S)-2-(6-Amino-4-(4,4-dimethylpiperidin-1-yl)-2-methyl-5-(2-(6-methylpyrimidin-4-yl)-1,2,3,4-tetrahydroisoquinolin-6-yl)pyridin-3-yl)-2-(tert-butoxy)acetic acid] | > 7.00 |
| CCOCCOCc1nc(C)c([C@H](OC(C)(C)C)C(=O)O)c(N2CCC(C)(C)CC2)c1-c1ccc(OCCc2ccc(F)cc2)cc1 [Example 10, (S)-2-(tert-Butoxy)-2-(4-(4,4-dimethylpiperidin-1-yl)-6-((2-ethoxyethoxy)methyl)-5-(4-(4-fluorophenethoxy)phenyl)-2-methylpyridin-3-yl)acetic acid] | > 7.00 |
| CC[N+](CC)(CC)Cc1nc(C)c([C@H](OC(C)(C)C)C(=O)O)c(N2CCC(C)(C)CC2)c1-c1ccc2c(c1)CCN(Cc1ccc(F)cc1C)C2 [Example 125, (S)—N-((5-(tert-Butoxy(carboxy)methyl)-4-(4,4-dimethylpiperidin-1-yl)-3-(2-(4-fluoro-2-methylbenzyl)-1,2,3,4-tetrahydroisoquinolin-6-yl)-6-methylpyridin-2-yl)methyl)-N,N-diethylethanaminium] | > 7.00 |
| Cc1cc(F)ccc1CN1CCc2cc(-c3c(COC4CCOCC4)nc(C)c([C@H](OC(C)(C)C)C(=O)O)c3N3CCC(C)(C)CC3)ccc2C1 [Example 155, (S)-2-(tert-Butoxy)-2-(4-(4,4-dimethylpiperidin-1-yl)-5-(2-(4-fluoro-2-methylbenzyl)-1,2,3,4-tetrahydroisoquinolin-6-yl)-2-methyl-6-(((tetrahydro-2H-pyran-4-yl)oxy)methyl)pyridin-3-yl)acetic acid] | > 7.00 |
| Cc1nc(CN(C)C(=O)C(=O)N(C)C)c(-c2ccc(OCCc3ccc(F)cc3)cc2)c(N2CCC(C)(C)CC2)c1[C@H](OC(C)(C)C)C(=O)O [Example 102, (S)-2-(tert-Butoxy)-2-(6-((2-(dimethylamino)-N-methyl-2-oxoacetamido)methyl)-4-(4,4-dimethylpiperidin-1-yl)-5-(4-(4-fluorophenethoxy)phenyl)-2-methylpyridin-3-yl)acetic acid] | > 7.00 |
| Cc1cc(F)ccc1CN1CCc2cc(-c3c(CN4CCCC4)nc(C)c([C@H](OC(C)(C)C)C(=O)O)c3N3CCC(C)(C)CC3)ccc2C1 [Example 118, (S)-2-(tert-Butoxy)-2-(4-(4,4-dimethylpiperidin-1-yl)-5-(2-(4-fluoro-2-methylbenzyl)-1,2,3,4-tetrahydroisoquinolin-6-yl)-2-methyl-6-(pyrrolidin-1-ylmethyl)pyridin-3-yl)acetic acid] | > 7.00 |
| Cc1nc(COC2CCOCC2)c(-c2ccc(OCCc3ccc(F)cc3)cc2)c(N2CCC(C)(C)CC2)c1[C@H](OC(C)(C)C)C(=O)O [Example 12, (S)-2-(tert-Butoxy)-2-(4-(4,4-dimethylpiperidin-1-yl)-5-(4-(4-fluorophenethoxy)phenyl)-2-methyl-6-(((tetrahydro-2H-pyran-4-yl)oxy)methyl)pyridin-3-yl)acetic acid] | > 7.00 |
| Cc1nc(CN(C)Cc2ccccc2)c(-c2ccc(OCCc3ccc(F)cc3)cc2)c(N2CCC(C)(C)CC2)c1[C@H](OC(C)(C)C)C(=O)O [Example 97, (S)-2-(6-((Benzyl(methyl)amino)methyl)-4-(4,4-dimethylpiperidin-1-yl)-5-(4-(4-fluorophenethoxy)phenyl)-2-methylpyridin-3-yl)-2-(tert-butoxy)acetic acid] | > 7.00 |
| Cc1cc(F)ccc1CN1CCc2cc(-c3c(COCC4COC4)nc(C)c([C@H](OC(C)(C)C)C(=O)O)c3N3CCC(C)(C)CC3)ccc2C1 [Example 154, (S)-2-(tert-Butoxy)-2-(4-(4,4-dimethylpiperidin-1-yl)-5-(2-(4-fluoro-2-methylbenzyl)-1,2,3,4-tetrahydroisoquinolin-6-yl)-2-methyl-6-((oxetan-3-ylmethoxy)methyl)pyridin-3-yl)acetic acid] | > 7.00 |
| Cc1nc(CNC(C)C)c(-c2ccc(OCCc3ccc(F)cc3)cc2)c(N2CCC(C)(C)CC2)c1[C@H](OC(C)(C)C)C(=O)O [Example 66, (S)-2-(tert-Butoxy)-2-(4-(4,4-dimethylpiperidin-1-yl)-5-(4-(4-fluorophenethoxy)phenyl)-6-((isopropylamino)methyl)-2-methylpyridin-3-yl)acetic acid] | > 7.00 |
| Cc1cc(F)ccc1CN1CCc2cc(-c3c(C(C)N(C)CC4CCOCC4)nc(C)c([C@H](OC(C)(C)C)C(=O)O)c3N3CCC(C)(C)CC3)ccc2C1 (single isomer, unassigned) [Example 150] | > 7.00 |
| COc1ccc(Cc2nc(C)c([C@H](OC(C)(C)C)C(=O)O)c(N3CCC(C)(C)CC3)c2-c2ccc(OCCc3ccc(F)cc3)cc2)cc1 [Example 60, (S)-2-(tert-Butoxy)-2-(4-(4,4-dimethylpiperidin-1-yl)-5-(4-(4-fluorophenethoxy)phenyl)-6-(4-methoxybenzyl)-2-methylpyridin-3-yl)acetic acid] | > 7.00 |
| Cc1cc(F)ccc1CN1CCc2cc(-c3c(CN4CC[C@H](F)C4)nc(C)c([C@H](OC(C)(C)C)C(=O)O)c3N3CCC(C)(C)CC3)ccc2C1 [Example 132, (S)-2-(tert-Butoxy)-2-(4-(4,4-dimethylpiperidin-1-yl)-5-(2-(4-fluoro-2-methylbenzyl)-1,2,3,4-tetrahydroisoquinolin-6-yl)-6-(((S)-3-fluoropyrrolidin-1-yl)methyl)-2-methylpyridin-3-yl)acetic acid] | > 7.00 |

Same assay, conditions: Human immunodeficiency virus 1, MT2, 120 h, read-out: EC50 μM

| Structure (SMILES) | EC50 [µM] |
| --- | --- |
| CC[N+](CC)(CC)Cc1nc(C)c([C@H](OC(C)(C)C)C(=O)O)c(N2CCC(C)(C)CC2)c1-c1ccc2c(c1)CCN(Cc1ccc(F)cc1C)C2 [Example 125, (S)—N-((5-(tert-Butoxy(carboxy)methyl)-4-(4,4-dimethylpiperidin-1-yl)-3-(2-(4-fluoro-2-methylbenzyl)-1,2,3,4-tetrahydroisoquinolin-6-yl)-6-methylpyridin-2-yl)methyl)-N,N-diethylethanaminium] | 0.016 |
| Cc1cc(F)ccc1CN1CCc2cc(-c3c(COC4CCOCC4)nc(C)c([C@H](OC(C)(C)C)C(=O)O)c3N3CCC(C)(C)CC3)ccc2C1 [Example 155, (S)-2-(tert-Butoxy)-2-(4-(4,4-dimethylpiperidin-1-yl)-5-(2-(4-fluoro-2-methylbenzyl)-1,2,3,4-tetrahydroisoquinolin-6-yl)-2-methyl-6-(((tetrahydro-2H-pyran-4-yl)oxy)methyl)pyridin-3-yl)acetic acid] | 0.001 |
| Cc1cc(F)ccc1CN1CCc2cc(-c3c(CN4CCCC4)nc(C)c([C@H](OC(C)(C)C)C(=O)O)c3N3CCC(C)(C)CC3)ccc2C1 [Example 118, (S)-2-(tert-Butoxy)-2-(4-(4,4-dimethylpiperidin-1-yl)-5-(2-(4-fluoro-2-methylbenzyl)-1,2,3,4-tetrahydroisoquinolin-6-yl)-2-methyl-6-(pyrrolidin-1-ylmethyl)pyridin-3-yl)acetic acid] | 0.002 |
